Key:
[1] = test system: Primary human PMBC derived macrophages; test: LPS-induced TNFa secretion in primary human monocyte-derived macrophages (ELISA); format: cell-based; parameters: TNFa Measurements Mean (baseline subtracted): unit not given beside the values; settings: for LPS-induced TNFa secretion, in words: primary human monocyte-derived macrophages
Protocol: Isolation of Peripheral Blood Mononuclear Cell (PBMC) Unpurified buffy coats (Research Blood Components) were carefully poured into 50 mL centrifuge tubes and diluted with room temperature Dulbecco's Phosphate Buffered Saline (dPBS) with Calcium and Magnesium (Gibco). Diluted buffy coats were further divided into four total 50 mL centrifuge tubes at 20 mL per tube. Lymphocyte Separation Medium (Corning) was carefully pipetted to the bottom of each centrifuge tube. Mixtures were centrifuged at 850×g for 32 minutes at 20° C. with 0 deceleration and acceleration.
CD14+ cells were selected using EasySep™ Human CD14 Positive Selection Kit II ([…] Technologies). Cells were resuspended in cold EasySep™ Buffer ([…] Technologies) at 1×10^8 cells/mL. A total of 100 uL/mL EasySep™ Human CD14 Positive Selection Cocktail II was added to the cell suspension, mixed, and incubated at room temperature for 10 minutes. A total of 100 uL/mL RapidSpheres were added to the mixture and incubated at room temperature for 3 minutes after mixing, then RoboSep buffer was added to bring up the total volume to 10 mL. The mixture in a 15 mL tube was placed in magnet and incubated at room temperature for 3 minutes. Supernatant was discarded and 10 mL fresh EasySep™ buffer was added to 15 mL tube. The addition of RoboSep buffer, mixing, and discarding of supernatant was repeated two more times.
Negative and positive fractions were centrifuged at 490×g for 5 minutes at 20° C. with acceleration of 9, deceleration of 9, and resuspended in DMEM (Gibco) and 10% Heat Inactivated Fetal Bovine Serum (Atlanta Bio) and Penicillin/Streptomycin. Cells were counted and centrifuged again at 490×g for 5 minutes at 20° C. with acceleration of 9, deceleration of 9. After centrifugation, cell were resuspended in DMEM (Gibco) and 10% Heat Inactivated Fetal Bovine Serum (Atlanta Bio) and Penicillin/Streptomycin containing 500 U/mL […] and plated at 1-2×10^6 cells/mL on 10 cm tissue culture plates. Cells were kept in 37° C., 5% CO2 in between feedings/harvest.
Cells were fed every 3-4 days by removing media and unattached cells, centrifuging at 490×g for 5 minutes at 20 C with acceleration of 9, deceleration of 9, and resuspending in fresh DMEM (Gibco) and 10% Heat Inactivated Fetal Bovine Serum (Atlanta Bio) and Penicillin/Streptomycincontaining 500 U/mL GM-CSF. Resuspended cells were seeded back onto 10 cm tissue culture plates and incubated at 37° C., 5% CO2.
After complete cell attachment, culture supernatant was removed and cultures were washed 1× with 5 mL PBS. A total of 3 mL room temperature Cellstripper was added and cultures were incubated at 37° C., 5% CO2 for approximately 10 minutes until cells were rounded and beginning to detach. Cell scraper was used to completely detach cells from plate. Collected cell were spun down at 490 g for 5 min at room temperature and resuspended in 10% DMSO in Heat Inactivated Fetal Bovine Serum and immediately frozen in −80 C.
Primary human PMBC derived macrophages were seeded on day 0 at 3.0E4 cells per well in 96-well microplates (ThermoFisher) in Dulbecco's Modified Eagle Medium (DMEM) (Gibco) supplemented with penicillin-streptomycin (Hyclone) and 10% heat inactivated fetal bovine serum (HI-FBS) (Atlanta Bio) and incubated overnight at 37° C., 5% CO2. On day 1, cells were washed once with 150 uL per well DPBS (Gibco) and treated with 75 uL of: • a. Amino acid free DMEM (US Biologicals) containing a defined custom amino acid concentration based on the mean physiological concentrations in blood based on values published in the Human Metabolome Database (HMDB), with 6 mM glucose, 1 mM sodium pyruvate, 10 mM HEPES, 0.2% primocin (InVivoGen); or • b. The same medium described above with one amino acid at various concentrations including complete dropout. […]

[2] = test system: Primary human hepatic stellate cells; test: TGFβ1-induced procollagen Iα1 secretion in primary human hepatic stellate cells (ELISA); format: cell-based; settings: for procollagen Iα1 secretion, in words: primary human hepatic stellate cells from three donors, 3 ng/mL TGFβ1, 24 h
Protocol: Primary human hepatic stellate cells were obtained from Samsara Sciences based on the following criteria for selecting donors: adult age (between 18 and 50 years), normal BMI (>18.5 and <25), and absence of confounding liver disease. Cells grown in Complete HSC Medium to ˜80% confluence in T75 or T150 flasks below passage 10 were seeded into sterile, collagen I coated, 96-well optical plastic microplates (ThermoScientific, 152036) at 6000 cells per well ([…]) and incubated overnight at 37° C., 5% CO2 in a humidified incubator in DMEM with 2% Fetal Bovine Serum and 1% Antibiotic-Antimycotic.
After the overnight incubation, plates were removed from the incubator and the medium was gently pipetted off and washed twice with 150 μL per well DPBS. The DPBS was removed and the pretreatment medium (±single amino acid dropout, 1×HMDB DMEM+1% Antibiotic-Antimycotic, 10 mM HEPES, ±supplemental amino acid dose; see experiment for medium composition) was applied to the cells at 150 μL per well. Plates were returned to the incubator for 10.5 hours.
After 10.5 hour pretreatment, the medium was removed from the cells, and the same pretreatment medium, now supplemented with 3 ng/mL TGFβ1, was applied. Each plate contained 3 ng/mL TGFβ1 in 1× human plasma amino acid (HMDB or PAA) concentration medium, 0 ng/mL in 1×HMDB, and 3 ng/mL TGFβ1+20 μM Silybin in 1×HMDB to serve as controls. Plates were then incubated for 24 hours at 37° C., 5% CO2.
After 24 hour stimulus, supernatant was removed and frozen at −80° C. in two separate aliquots. The cells were then washed with 125 μL per well Buffer FCW (FastLane Cell Multiplex NR Kit, Qiagen, 216713). The wash buffer was immediately removed and 50 μL of Cell Processing Mix (containing genomic DNA Wipeout buffer) was applied to lyse cells, incubating for 10 minutes at room temperature. RNA lysate was then transferred to 96-well qPCR plates, sealed, and gDNA was digested on thermal cycler at 75° C. for 5 minutes. RNA lysate was frozen at −80° C.
Human Procollagen Iα1 was measured from the supernatant by ELISA (Human Pro-Collagen I alpha 1 DuoSet ELISA, R&D Systems) at 1/100 dilution in 1× Reagent Diluent (Reagent Ancillary Kit 2, R&D Systems).

CC(=O)N[C@@H](CS)C(=O)O [N-acetylcysteine]
TNFa Measurements Mean (baseline subtracted) ([1]; Donor 1, Conc. 0 X (baseline), LPS 0.15 ng/mL): 0
LPS-induced TNFa secretion, in words ([1]; Donor 1, 0.15 ng/mL LPS): significantly reduced
LPS-induced TNFa secretion, in words ([1]; Donor 2, 0.15 ng/mL LPS): significantly reduced
LPS-induced TNFa secretion, in words ([1]; Donor 3, 0.15 ng/mL LPS): significantly reduced
procollagen Iα1 secretion, in words [2]: significantly decrease procollagen Iα1 secretion in two of the three donors

CC(C)[C@H](N)C(=O)O [Valine, L-Valine]
TNFa Measurements Mean (baseline subtracted) ([1]; Donor 1, Conc. 234 μM (baseline), LPS 0.15 ng/mL): 0
Procollagen Iα1 Secretion (Fold Change of 1X), Mean ([2]; first donor, Conc. 234 μM (baseline)): 1.0000 fold
procollagen Iα1 secretion, in words [2]: significantly increased procollagen Iα1 secretion in only one of two donors
Procollagen Iα1 Secretion (Fold Change of 1X), Mean ([2]; second donor, Conc. 234 μM (baseline)): 1.0000 fold
Procollagen Iα1 Secretion (Fold Change of 1X), Mean ([2]; third donor, Conc. 234 μM (baseline)): 1.0000 fold

CC(C)C[C@H](N)C(=O)O [Leucine, L-Leucine]
TNFa Measurements Mean (baseline subtracted) ([1]; Donor 2, Conc. 153 μM (baseline), LPS 0.15 ng/mL): 0
LPS-induced TNFa secretion, in words ([1]; Donor 2, 0.15 ng/mL LPS): increased
Procollagen Iα1 Secretion (Fold Change of 1X), Mean ([2]; first donor, Conc. 153 μM (baseline)): 1.0000 fold
Procollagen Iα1 Secretion (Fold Change of 1X), Mean ([2]; second donor, Conc. 153 μM (baseline)): 1.0000 fold
Procollagen Iα1 Secretion (Fold Change of 1X), Mean ([2]; third donor, Conc. 153 μM (baseline)): 1.0000 fold

N=C(N)NCCC[C@H](N)C(=O)O [Arginine, L-Arginine]
TNFa Measurements Mean (baseline subtracted) ([1]; Donor 1, Conc. 109 μM (baseline), LPS 0.15 ng/mL): 0
Procollagen Iα1 Secretion (Fold Change of 1X), Mean ([2]; first donor, Conc. 109 μM (baseline)): 1.0000 fold
procollagen Iα1 secretion, in words [2]: significantly increased procollagen Iα1 secretion in two of three donors
Procollagen Iα1 Secretion (Fold Change of 1X), Mean ([2]; second donor, Conc. 109 μM (baseline)): 1.0000 fold
Procollagen Iα1 Secretion (Fold Change of 1X), Mean ([2]; third donor, Conc. 109 μM (baseline)): 1.0000 fold

NC(=O)CC[C@H](N)C(=O)O [Glutamine, L-Glutamine]
TNFa Measurements Mean (baseline subtracted) ([1]; Donor 3, Conc. 749 μM (baseline)): 0
LPS-induced TNFa secretion, in words ([1]; Donor 2, 0.15 ng/mL LPS): increased
LPS-induced TNFa secretion, in words ([1]; Donor 3, 0.15 ng/mL LPS): increased
Procollagen Iα1 Secretion (Fold Change of 1X), Mean ([2]; first donor, Conc. 562 μM (baseline)): 1.0000 fold
procollagen Iα1 secretion, in words [2]: did not have a significant impact
Procollagen Iα1 Secretion (Fold Change of 1X), Mean ([2]; second donor, Conc. 562 μM (baseline)): 1.0000 fold
Procollagen Iα1 Secretion (Fold Change of 1X), Mean ([2]; third donor, Conc. 562 μM (baseline)): 1.0000 fold

CC[C@H](C)[C@H](N)C(=O)O [Isoleucine, L-Isoleucine]
TNFa Measurements Mean (baseline subtracted) ([1]; Donor 1, Conc. 66 μM (baseline), LPS 0.15 ng/mL): 0
LPS-induced TNFa secretion, in words ([1]; Donor 2, 0.15 ng/mL LPS): increased
procollagen Iα1 secretion, in words [2]: significantly increased procollagen Iα1 secretion in two of three donors
Procollagen Iα1 Secretion (Fold Change of 1X), Mean ([2]; second donor, Conc. 66 μM (baseline)): 1.0000 fold
Procollagen Iα1 Secretion (Fold Change of 1X), Mean ([2]; third donor, Conc. 66 μM (baseline)): 1.0000 fold
